# From patent US20260000713A1, “MICROBIAL M[…] INTESTINAL INFLAMMATION” (CEDARS-SINAI MEDICAL CENTER, priority 2021, published 2026)
# Where two headings read alike, the source gives them in different places.
# Tests used:
# [1] = test system: GF WT mice or GF Tl1a-tg mice; conditions: 200 mM sodium acetate in drinking water for 3 months, vs regular drinking water
# Experimental: (§1) Histology Scoring: Ileal tissues were collected 1-2 cm long near cecum, paraffin-embedded and stained with H&E for histological analysis. Severity of ileal inflammation was evaluated in a blinded manner according to previously described criteria by two trained animal pathologists. Spontaneous ileitis was evaluated by scoring the degree of inflammation, extent of involvement, crypt damage and villus changes as described. GF mice were evaluated using a scoring criterion.
# The impact of acetate on the development of ileitis was examined.
# (§2) Acetate supplementation: Sodium acetate (Sigma Aldrich) was added at 200 mM to drinking water. SPF mice were supplemented with acetate water for 2 or 4 months starting at 2 months of age. GF mice were supplemented with acetate water for 3 months starting at 2-3 months of age.
# 12-week-old littermate GF WT mice or GF Tl1a-tg mice were treated with 200 mM of sodium acetate in drinking water (ad libitum) for 3 months. […] The number of mice used was 12 to 22 mice per group.
# IFN-γ = conditions: MLN cells restimulated with anti-CD3ε and anti-CD28 for 3 days
# Experimental: as §2
# Isolation of mesenteric lymph nodes mononuclear cells, restimulation, and ELISA: Mesenteric lymph nodes (MLN) were removed from the peritoneal cavity and mesenteric fat was removed. Single cell suspension was prepared by crushing MLN between two glass slides and passing the cell suspension through a 40 μm cell strainer. Single-cell suspensions were restimulated with anti-CD3ε (0.5 μg/ml) and anti-CD28 (1 μg/ml) antibodies for 3 days. Cytokine levels in supernatants were measured by ELISA. Cytokine concentration in culture supernatants was assayed by ELISA for murine IFN-γ (eBioscience).
# (§3) The groups depicted include WT H2O, WT Ac (acetate), Tl1a-tg H2O, and Tl1a-tg Ac. Around 12-19 mice were used in each group. […] Around 6 mice were used per group.
# Paneth cells = conditions: acetate treated GF WT or Tl1a-tg mice
# Experimental: as §2, §3
# [2] = test system: SPF WT mice or tl1a-tg mice
# Experimental: as §1, §2
# In a second set of experiments, SPF WT mice or tl1a-tg mice were treated with acetate in drinking water for 2 or 4 months starting at 2 months of age. […] 9 to 23 mice were used per group.
# [3] = test system: Germ-free IBD susceptible mice; conditions: Germ-free Tl1a-Tg mice receiving acetate vs standard water
# Experimental: as §2
structure (smiles),measurement,setting,value
"CC(=O)[O-].[Na+] [acetate, Sodium acetate]",ileal inflammation (ileum histoscore),[1]; GF Tl1a-tg mice,developed ileal inflammation
same,ileal inflammation (ileum histoscore),[1]; GF WT mice,developed ileal inflammation
same,IFN-γ secretion by MLN,IFN-γ; acetate treated GF Tl1a-tg mice,significantly elevated IFN-γ secretion
same,IFN-γ secretion by MLN,IFN-γ; acetate treated GF WT mice,significantly elevated IFN-γ secretion
same,"Paneth cell granule maturation (percentage of Paneth cells with D0, D1, D2, D3 features)",Paneth cells,did not result in normal Paneth cell granule maturation
same,ileitis (histoscore),"[2]; SPF Tl1a-tg mice, acetate in drinking water for 2 months starting at 2 months of age, vs age-matched water controls",led to ileitis
same,ileal inflammation (histoscore),"[2]; SPF WT mice, acetate in drinking water for 4 months starting at 2 months of age, vs water controls",developed ileal inflammation
same,cecal collagen deposition (fibrosis),[3],increase in cecal collagen deposition
